These results are taken from patent US20160067298A1, “MUSCADINE GRAPE SKIN EXTRACT AS TREATMENT FOR BONE METASTATIC CANCER” (Clark Atlanta University, priority 2014, published 2016).

“Also recorded” adds a separate entry of the source. Peptide text beside a SMILES is read from it. * marks the point of attachment. Cbz = O=C(OCc1ccccc1)*

One test has as its system rat bone cells. Conditions: by inhibiting collagen degradation; cited from earlier work.
The test system of test [1] is MCF-7 and ARCaP-E cells over expressing Snail. Briefly: In vitro cell migration assay (collagen I transwell). It counts as cell-based, human. Conditions: 5 μM Z-FY-CHO for 72 hours; migration 5 hours. As to the method: We utilized Costar 24-well plates containing a polycarbonate filter insert with an 8-μm pore size, to coat with 4.46 μg/μl rat tail collagen I on the outside for 24 h at 4° C. 5×10^4 cells were plated in the upper chamber containing RPMI supplemented with 0.1% fetal bovine serum (FBS) while the lower chamber contained RPMI supplemented with 10% FBS. After 5 h, cells that migrated to the bottom of the insert were fixed, stained with 0.05% crystal violet, and counted to obtain the relative cell migration.
FIGS. 4A and 4B show MCF-7 and ARCaP-E cells over expressing Snail treated with 5 μg/mL, 20 μg/mL Muscadine Grape Skin Extract (MSKE) and 5 μM Z-FY-CHO for 72 hours. 5×10^4 cells were plated on transwell coated with Type-I collagen as described in the materials and methods section. The cells were allowed to migrate for 5 hours and then fixed and stained. The number of cells that migrated through the transwell membranes was determined by counting at least 4 random microscopic fields.

The test system of another test is mature CatL. As to the kind of experiment: Western blot analysis, mature CatL. In kind it is cell-based, human. Conditions: 5 μM Z-FY-CHO, 72 h. On the procedure:
(§1) We also performed Western blot analysis of whole cell lysates obtained from untreated control and MSKE treatments. ARCaPE and MCF-7 cells over expressing Snail were treated with MSKE for 3 days, and probed for Snail, phosph-STAT-3 (p-STAT3), and […] Western blot analysis.
(§2) Cells were lysed in a modified RIPA buffer (50 mM Tris pH 8.0, 150 mM NaCl, 0.02% NaN3, 0.1% SDS, 1% NP-40, 0.5% sodium deoxycholate) containing 1.5× protease inhibitor cocktail, 1 mM phenylmethylsufonyl fluoride (PMSF), and 1 mM sodium orthovanadate. Whole cell lysates were freeze-thawed at −80° C./4° C. for three cycles, then centrifuged at 13,000 rpm for 30 min at 4° C. Supernatants were collected and quantified using a micro BCA assay (Promega, Madison, Wis.). 40 μg of cell lysate was resolved using 10% SDS PAGE, followed by transblotting onto nitrocellulose membrane (Bio-Rad Laboratories, Hercules, Calif.). Membranes were blocked with 3% milk (TBS-T containing 3% milk), then washed and incubated with primary antibody dilution buffer. […]
(§3) The expression levels of Snail, mature CatL, STAT-3 and Phospho-STAT-3 (pstat-3) were determined with western blot. […] Mature Cathepsin L activity was determined by gelatin zymography. Cathepsin L activity was quantified with densitometry of each band on the gel. […]

The subject of test [2] is ARCaP-Snail/MCF-7 Snail co-cultured with spleen macrophages. Briefly: In vitro osteoclastogenesis assay (TRAP staining of mature osteoclasts). It counts as cell-based, human. Conditions: vs untreated control. On the procedure:
We obtained MSKE from Dr Tamaro Hudson, our collaborator from Howard University and used it to perform osteoclastogenesis assay on prostate and breast cancer cell lines, including one in which Snail, a transcription factor, is overexpressed. 3×10^3 ARCaP-Neo/MCF-7 Neo or ARCaP-Snail/ MCF-7 Snail was co-cultured with 40×10^4 spleen macrophages in 48-well plates plus 1 ng/ml M-CSF plus or minus 5 μg/ml MSKE, 20 μg/ml MSKE, and 5 μM Z-FY-CHO CatL inhibitor.
The cells were fed every three days by replacing half the media with fresh media plus or minus MSKE or Z-FY-CHO. Macrophages alone were utilized as a negative control. After 7-14 days the cells were fixed with 3% formaldehyde and processed for TRAP staining according to manufacturer instructions, to visualize the formation of mature osteoclasts.
3×10^3 ARCaP-Neo/MCF-7 Neo or ARCaP-Snail/MCF-7 Snail was co-cultured with 40×10^4 spleen macrophages in 48-well plates plus 1 ng/ml M-CSF plus or minus 5 μg/mL MSKE, 20 μg/mL MSKE or […] Z-FY-CHO Cat L inhibitor. […]
3×10^3 or 1×10^3 prostate cancer cells overexpressing Snail (see FIG. 5) and breast cancer cells overexpressing Snail (FIG. 6) were co-cultured with 40×10^4 Macrophages for 14 days and treated with 50 ng/mL osteoprotogerin (control), 5 μM Z-FY-CHO, 5 μg/mL or 20 μg/ML MSKE. […] Osteoclasts were determined by having 3 or more nuclei (FIGS. 5 and 6 insets). […]

The target in the next test is T1, Cathepsin L (CatL) (Homo sapiens, UniProt P07711).
T1 construct: endogenous in cells; host or cells: conditioned media of ARCaP-E Snail, MCF-7 Snail and C4-2 cells
T1 sequence (P07711 114-333): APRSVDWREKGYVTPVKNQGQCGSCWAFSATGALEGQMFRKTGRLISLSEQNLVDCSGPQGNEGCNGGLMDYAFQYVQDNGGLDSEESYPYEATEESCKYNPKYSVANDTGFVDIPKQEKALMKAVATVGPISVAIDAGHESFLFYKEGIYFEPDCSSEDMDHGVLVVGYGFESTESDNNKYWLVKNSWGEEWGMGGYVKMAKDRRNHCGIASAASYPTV
As to the kind of experiment: Cathepsin gelatin zymography of conditioned media. It counts as cell-based. The note with it: 5 μM Z-FY-CHO, 72 h; vs untreated control. On the procedure:
We also performed cathepsin zymography to detect cathepsin activity in untreated control and MSKE treatments. ARCaPE and MCF-7 cells over expressing Snail were treated with MSKE for 3 days using the condition media from the […]. With these steps we were able to detect higher CatL activity (enzymes hydrolyze the embedded substrate in situ, and proteolytic activity can be visualized as cleared bands) in cells overexpressing Snail as compared to Neo empty vector control cells.
We utilized the cathepsin zymography technique as previously described. Briefly, 1 mL of conditioned media (CM) containing 0.1 mM leupeptin was concentrated utilizing vivaspin tube (GE Health Care). The concentrated CM was diluted by adding […] of the sample to 45 μl of 1× RIPA buffer followed by determination of the protein concentration using BCA protein assay kit. […] Cathepsin activity was subsequently quantified using densitometry (NIH Image J). […]
as §3

The next test concerns Snail. Briefly: Western blot analysis, Snail. It counts as cell-based, human. Conditions: 5 μM Z-FY-CHO, 72 h. On the procedure:
as §1, §2, §3
For orientation: In western blotting, separated proteins are transferred to a membrane and probed.

For a further test, the system named is p-STAT-3. As to the kind of experiment: Western blot analysis, phospho-STAT-3. It counts as cell-based, human. Conditions: 5 μM Z-FY-CHO, 72 h. On the procedure: as §1, §2, §3
The subject of test [3] is MCF-7 and ARCaP-E cells over expressing Snail. As to the kind of experiment: In vitro cell invasion assay (Matrigel). It counts as cell-based, human. Conditions: 5 μM Z-FY-CHO for 72 hours; invasion 24 hours. As to the method: The invasive properties of the cell lines were measured using the BD BioCoat Matrigel Invasion guidelines. Briefly, Boyden chamber inserts (Thermo Fisher Scientific, Waltham, Mass., USA) were coated with 40 μl 1:4 Matrigel and allowed to solidify at 37° C. for 1 h. 5×10^4 cells were seeded in triplicate in 0.1% FBS, while the lower chamber contained 10% FBS. Cells were allowed to invade through the porous membrane coated with Matrigel at 37° C. for 24-72 h. Inserts were fixed, stained with 0.05% crystal violet. Cell counts were performed for the determination of relative cell invasion.
FIGS. 4C and 4D represent cell invasion of the same cell lines. 5×10^4 cells were plated on transwells coated with Matrigel. Cell invasion was allowed to take place for 24 hours. The number of cells that invaded through the transwell membranes were determined by counting at least 4 random microscopic fields. Compared to neo empty vector cells overexpressing Snail represent an increase in migration and invasion. MSKE and Z-FY-CHO decrease migratory and invasive cells. Asterisks represent p-value of statistical significance (n=3, ***p<0.001, **p<0.01, *p<0.05). Values were normalized to untreated controls and the mean±SEM of data were obtained from three independent replicate experiments with at least three wells per treatment group in each individual replicate. Statistical analysis was done with Student t test.

On to `O=C[C@H](Cc1ccc(O)cc1)NC(=O)[C@H](Cc1ccccc1)NC(=O)OCc1ccccc1` [Z-FY-CHO] (Cbz-Phe-Tyr-aldehyde), for which the bone resorption result with rat bone cells is “inhibit”. Besides, the cell migration result in test [1] is given as “abrogated; also recorded: decrease”. Further, in the test on mature CatL, the “Cat L expression” value was “decrease”. The formation of osteoclasts result in test [2] (5 μM Z-FY-CHO, prostate and breast cancer cells overexpressing Snail co-cultured with macrophages) was “significantly decrease; also recorded: significantly abrogated”. The “amount of active CatL (CatL activity)” value on Cathepsin L (CatL) is “significantly decreased; also recorded: decrease”. Besides, in the test with Snail, the Snail expression entry is recorded as “decrease”. The “STAT-3 activation (p-STAT-3)” value in the test with p-STAT-3 is reported as “decrease”. For the same molecule, in test [3], the cell invasion entry is listed as “abrogated; also recorded: decrease”.

B1: OPG: Osteoprotegerin, decoy receptor that binds RANKL; used as control in osteoclastogenesis assay (protein, UniProt O00300 22-401, looked up)
Tumor necrosis factor …: ETFPPKYLHYDEETSHQLLCDKCPPGTYLKQHCTAKWKTVCAPCPDHYYTDSWHTSDECLYCSPVCKELQYVKQECNRTHNRVCECKEGRYLEIEFCLKHRSCPPGFGVVQAGTPERNTVCKRCPDGFFSNETSSKAPCRKHTNCSVFGLLLTQKGNATHDNICSGNSESTQKCGIDVTLCEEAFFRFAVPTKFTPNWLSVLVDNLPGTKVNAESVERIKRQHSSQEQTFQLLKLWKHQNKDQDIVKKIIQDIDLCENSVQRHIGHANLTFEQLRSLMESLPGKKVGAEDIEKTIKACKPSDQILKLLSLWRIKNGDQDTLKGLMHALKHSKTYHFPKTVTQSLKKTIRFLHSFTMYKLYQKLFLEMIGNQVQSVKISCL
Turning to B1, the formation of osteoclasts entry in test [2] (50 ng/ml OPG) was “significantly decreased”.
